# Values of other authors as cited in US11692003B2, “Mithramycin derivatives having increased selectivity and anti-cancer activity” (University of Kentucky Research Foundation, priority 2018, dated 2023).
# Test system: several cancer cell lines
row,SMILES,activity against several cancer cell lines compared to the parent MTM
1,"CO[C@H](C(=O)C(C)=O)[C@@H]1Cc2cc3cc(OC4C[C@@H](OC5C[C@@H](O)[C@H](O)C(C)O5)[C@H](O)C(C)O4)c(C)c(O)c3c(O)c2C(=O)[C@H]1OC1C[C@@H](OC2C[C@@H](OC3C[C@](C)(O)[C@H](O)C(C)O3)[C@@H](O)C(C)O2)[C@H](O)C(C)O1 (some centres unmarked) [MTM SDK, mithramycin SDK]",increased activity
2,"CO[C@H](C(O)C(C)=O)[C@@H]1Cc2cc3cc(OC4C[C@@H](OC5C[C@@H](O)[C@H](O)C(C)O5)[C@H](O)C(C)O4)c(C)c(O)c3c(O)c2C(=O)[C@H]1OC1C[C@@H](OC2C[C@@H](OC3C[C@](C)(O)[C@H](O)C(C)O3)[C@@H](O)C(C)O2)[C@H](O)C(C)O1 (some centres unmarked) [MTM SK, Mithramycin SK]",increased activity
